Source: patent US20140005103A1, “SULFONAMIDE DERIVATIVES AND METHODS OF USE THEREOF FOR IMPROVING THE PHARMACOKINETICS OF A DRUG” (Merck, Sharp & Dohme Corp., priority 2012, published 2014)

Key:
CYP1A2 = target: T1, CYP1A2 (Homo sapiens, UniProt P05177); experiment: Cocktail CYP assay, phenacetin O-deethylation; format: in vitro ADME; conditions: human liver microsomes, 10 μM phenacetin; test concentrations up to 10 μM
T1 construct: 0.1 mg/mL protein human liver microsomes (BD Gentest); tissue BD Gentest; host or cells: human liver microsomes
T1 sequence (P05177 1-516): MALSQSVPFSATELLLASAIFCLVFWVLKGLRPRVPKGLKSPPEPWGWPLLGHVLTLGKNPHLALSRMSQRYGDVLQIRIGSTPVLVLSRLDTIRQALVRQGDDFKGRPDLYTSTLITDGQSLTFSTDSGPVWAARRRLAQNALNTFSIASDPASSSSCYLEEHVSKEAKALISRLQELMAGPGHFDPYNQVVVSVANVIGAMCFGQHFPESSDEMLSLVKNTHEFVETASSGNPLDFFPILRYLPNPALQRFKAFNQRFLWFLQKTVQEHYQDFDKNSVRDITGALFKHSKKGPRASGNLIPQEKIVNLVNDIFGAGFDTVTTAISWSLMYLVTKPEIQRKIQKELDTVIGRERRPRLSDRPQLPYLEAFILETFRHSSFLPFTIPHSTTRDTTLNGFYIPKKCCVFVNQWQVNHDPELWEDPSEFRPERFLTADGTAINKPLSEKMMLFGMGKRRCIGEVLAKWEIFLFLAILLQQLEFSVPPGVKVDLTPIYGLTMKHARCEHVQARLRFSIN
Experimental: (§1) Determination of IC50 in a Cocktail Assay for CYPs 1A2, 2C9, 2C19, 2D6 and 3A4
(§2) This assay was performed in a standard 96-well plate design. IC50 values were calculated from the percent inhibition observed for each test compound at 6 concentrations (for example, 0.0032, 0.016, 0.08, 0.4, 2 and 10 μM). The incubation substrate mix contains 10 μM phenacetin (1A2), 5 μM diclofenac (2C9), 30 μM mephenyloin (2C19), 5 μM dextromethorphan (2D6) and 2 μM midazolam (3A4), 0.1 mg/mL protein human liver microsomes (BD Gentest), 1 mM NAPDH, 3.3 mM MgCl2 and 100 mM potassium phosphate buffer (pH 7.4). The production of the metabolite of each probe substrate was determined after incubation for 10 min at 37° C. Quantitation of the metabolite peak area ratio against an internal standard (tolbutamide) was determined by LC/MS/MS analysis following acetonitrile treatment of the incubations.
(§3) Samples were analyzed in the MRM mode with a SCIEX API-4000 mass spectrometer (Applied Biosystems, Foster City, Calif.), with a Shimadzu LC-20 AD pump (Shimadzu corporation, Kyoto, JP) and a CTC PAL autosampler (Agilent Technologies, Switzerland). A Phenomenex, Luna, 5 nm, 100 A, 2.00×30 mm HPLC column was used for the separation. The mobile phases were: (A) 0.1% formic acid in water and (B) 0.1% formic acid in acetonitrile. The binary gradient was as follows.
(§4) The peak area ratio of the analyte to the internal standard was used to quantify the metabolite. The values of peak area ratios in the presence of test compound were compared to those of maximum or minimum controls and were expressed as % inhibition by interpolating between the maximum and minimum peak area ratios. Incubations with no inhibitor were defined as the maxima.
(§5) The following equation was used to calculate the % inhibition:
(§6) [1−[(X−Low control)/(High control−Low control)]]*100
(§7) For the IC50 calculation, SigmaPlot was used to plot the mean % inhibition versus the test compound concentrations and for non-linear regression analysis of the data. Depending on the range of data points defining the inhibition curve, the data may have been fit to the 4-parameter logistic equation.

CYP2C9 = target: T2, CYP2C9 (Homo sapiens, UniProt P11712); experiment: Cocktail CYP assay, diclofenac 4'-hydroxylation; format: in vitro ADME; conditions: human liver microsomes, 5 μM diclofenac; test concentrations up to 10 μM
T2 construct: 0.1 mg/mL protein human liver microsomes (BD Gentest); tissue BD Gentest; host or cells: human liver microsomes
T2 sequence (P11712 whole entry): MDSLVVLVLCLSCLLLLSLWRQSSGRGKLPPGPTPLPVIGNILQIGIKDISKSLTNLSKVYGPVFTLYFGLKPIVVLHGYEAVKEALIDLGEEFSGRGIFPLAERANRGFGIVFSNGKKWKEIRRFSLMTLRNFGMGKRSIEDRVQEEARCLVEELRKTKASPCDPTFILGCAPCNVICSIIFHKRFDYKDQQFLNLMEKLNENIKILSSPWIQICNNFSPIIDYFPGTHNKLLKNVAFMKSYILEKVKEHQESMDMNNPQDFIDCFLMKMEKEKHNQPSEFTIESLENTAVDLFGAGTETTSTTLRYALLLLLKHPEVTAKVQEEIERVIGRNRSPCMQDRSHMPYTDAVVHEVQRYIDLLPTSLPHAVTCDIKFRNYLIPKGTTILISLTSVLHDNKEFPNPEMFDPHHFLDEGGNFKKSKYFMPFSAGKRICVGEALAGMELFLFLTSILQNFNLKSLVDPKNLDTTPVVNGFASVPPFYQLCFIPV
Experimental: as §1, §2, §3, §4, §5, §6, §7

CYP2C19 = target: T3, CYP2C19 (Homo sapiens, UniProt P33261); experiment: Cocktail CYP assay, mephenytoin 4'-hydroxylation; format: in vitro ADME; conditions: human liver microsomes, 30 μM mephenytoin; test concentrations up to 10 μM
T3 construct: 0.1 mg/mL protein human liver microsomes (BD Gentest); tissue BD Gentest; host or cells: human liver microsomes
T3 sequence (P33261 whole entry): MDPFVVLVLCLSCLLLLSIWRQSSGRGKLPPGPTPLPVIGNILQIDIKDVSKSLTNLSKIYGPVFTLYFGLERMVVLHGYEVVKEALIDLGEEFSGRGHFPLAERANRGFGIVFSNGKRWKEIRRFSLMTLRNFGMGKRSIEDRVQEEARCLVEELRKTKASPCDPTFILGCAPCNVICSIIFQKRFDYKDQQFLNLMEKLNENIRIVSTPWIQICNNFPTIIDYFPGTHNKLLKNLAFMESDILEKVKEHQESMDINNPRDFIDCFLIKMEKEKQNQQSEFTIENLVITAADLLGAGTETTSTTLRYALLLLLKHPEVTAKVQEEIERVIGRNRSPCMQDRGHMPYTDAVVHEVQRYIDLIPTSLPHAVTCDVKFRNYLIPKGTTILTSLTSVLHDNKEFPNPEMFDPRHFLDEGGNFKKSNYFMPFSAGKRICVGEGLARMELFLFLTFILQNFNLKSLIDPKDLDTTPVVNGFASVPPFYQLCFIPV
Experimental: as §1, §2, §3, §4, §5, §6, §7

CYP2D6 = target: T4, CYP2D6 (Homo sapiens, UniProt P10635); experiment: Cocktail CYP assay, dextromethorphan O-demethylation; format: in vitro ADME; conditions: human liver microsomes, 5 μM dextromethorphan; test concentrations up to 10 μM
T4 construct: 0.1 mg/mL protein human liver microsomes (BD Gentest); tissue BD Gentest; host or cells: human liver microsomes
T4 sequence (P10635 whole entry): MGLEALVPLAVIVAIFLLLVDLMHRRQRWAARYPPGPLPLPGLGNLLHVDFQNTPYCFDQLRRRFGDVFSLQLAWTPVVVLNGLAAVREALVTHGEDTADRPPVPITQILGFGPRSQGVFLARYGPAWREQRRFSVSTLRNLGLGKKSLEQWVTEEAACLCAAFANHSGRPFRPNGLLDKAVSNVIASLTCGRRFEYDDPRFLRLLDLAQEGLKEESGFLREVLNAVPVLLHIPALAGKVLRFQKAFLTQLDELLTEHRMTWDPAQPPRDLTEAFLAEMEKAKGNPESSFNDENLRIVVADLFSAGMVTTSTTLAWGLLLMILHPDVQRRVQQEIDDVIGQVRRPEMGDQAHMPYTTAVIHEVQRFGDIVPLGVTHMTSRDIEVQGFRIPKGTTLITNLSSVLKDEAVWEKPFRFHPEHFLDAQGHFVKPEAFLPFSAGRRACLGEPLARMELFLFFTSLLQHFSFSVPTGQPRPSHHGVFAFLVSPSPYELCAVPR
Experimental: as §1, §2, §3, §4, §5, §6, §7

CYP3A4 = CYP3A4 (Homo sapiens, UniProt P08684); experiment: IC50 vs CYP3A by inhibition of lopinavir metabolism in human liver microsomes; format: biochemical; conditions: pH 7.4, human liver microsomes, 1.5 μM lopinavir, 8 min at 37° C., test concentrations 0.098-100 nM, read-out: 3A4(LPV)
Sequence of CYP3A4 (P08684 2-503): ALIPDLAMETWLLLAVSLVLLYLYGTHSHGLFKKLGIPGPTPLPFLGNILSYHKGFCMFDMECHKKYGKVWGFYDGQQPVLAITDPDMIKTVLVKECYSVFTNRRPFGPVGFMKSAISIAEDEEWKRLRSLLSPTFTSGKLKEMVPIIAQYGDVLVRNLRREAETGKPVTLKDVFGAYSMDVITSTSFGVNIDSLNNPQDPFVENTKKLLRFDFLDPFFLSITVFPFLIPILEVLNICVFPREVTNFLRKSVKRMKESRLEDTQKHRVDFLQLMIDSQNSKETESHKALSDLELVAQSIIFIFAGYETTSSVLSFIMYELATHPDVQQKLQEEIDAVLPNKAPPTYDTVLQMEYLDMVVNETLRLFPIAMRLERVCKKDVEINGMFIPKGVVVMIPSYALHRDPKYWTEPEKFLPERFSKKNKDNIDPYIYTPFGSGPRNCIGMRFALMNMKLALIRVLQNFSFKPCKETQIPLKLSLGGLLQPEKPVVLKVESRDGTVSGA
Experimental: Determination of IC50 vs CYP3A by Measurement of Inhibition of Lopinavir Metabolism
This assay was performed in a standard 96-well plate design. IC50 values were calculated from the percent inhibition observed for each test compound at 6 concentrations (for example, 0.098, 0.391, 1.56, 6.25, 25 and 100 nM). The incubation substrate mix contains 1.5 μM lopinavir, 0.01 mg/mL protein human liver microsomes (BD Gentest), 1 mM NAPDH, 3.3 mM MgCl2 and 100 mM potassium phosphate buffer (pH 7.4). The production of the sum of three hydroxylated metabolites (M2: 6-hydroxy lopinavir, M3: 4-hydroxy lopinavir, M4: 4-hydroxy lopinavir (epimer of M3), Kumar et al., 1999) was determined after incubation for 8 min at 37° C. Quantitation of the metabolite peak area ratio against an internal standard (tolbutamide) was determined by LC/MS/MS analysis following acetonitrile treatment of the incubations.
as §3, with “μm,” for “nm,”
as §4, with “maxima and with 5 μM ketoconazole were defined as the minima” for “maxima.”
as §5, §6, §7

human CYP11B1 = target: T5, human CYP11B1 (Homo sapiens, UniProt P15538); experiment: IC50 vs CYP11B1 by cortisol synthesis in V79 cells; format: cell-based; conditions: V79 cells expressing human CYP11B1, 1500 nM RSS, cortisol HTRF; test concentrations 0.5-10000 nM
T5 construct: expressed in transfected cells
T5 sequence (P15538 25-503): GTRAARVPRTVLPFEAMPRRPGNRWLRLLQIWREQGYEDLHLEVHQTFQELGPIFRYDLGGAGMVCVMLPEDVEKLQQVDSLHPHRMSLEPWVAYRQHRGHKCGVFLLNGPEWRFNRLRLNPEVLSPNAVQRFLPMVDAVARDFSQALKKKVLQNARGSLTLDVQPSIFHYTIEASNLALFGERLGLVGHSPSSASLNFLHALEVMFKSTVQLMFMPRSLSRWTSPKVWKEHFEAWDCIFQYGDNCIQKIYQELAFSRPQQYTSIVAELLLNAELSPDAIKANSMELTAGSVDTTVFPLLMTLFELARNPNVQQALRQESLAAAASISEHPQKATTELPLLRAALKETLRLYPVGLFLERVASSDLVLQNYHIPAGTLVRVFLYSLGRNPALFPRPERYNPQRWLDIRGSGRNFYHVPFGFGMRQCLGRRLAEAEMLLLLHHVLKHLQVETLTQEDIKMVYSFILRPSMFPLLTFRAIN
Experimental: (§8) Determination of IC50 vs CYP11B1/CYP11B2 by Measurement of Cortisol/Aldosterone Synthesis
(§9) This assay was performed in a standard 384-well plate design using cultured V79 cells stably expressing human CYP11B1 or human CYP11B2. Test compounds at 10 concentrations (for example, 10000, 3333.3, 1111.1, 370.4, 123.5, 41.2, 13.7, 4.6, 1.5 and 0.5 nM) were added in 384-well plate after the cell-seeding procedure. The incubation substrate contains 1500 nM RSS for CYP11B1 assay/750 nM DOC for CYP11B2 assay. The
(§10) Cortisol/Aldosterone production of cell culture supernatant was determined by Cortisol/Aldosterone HTRF kit after for about 15 hours incubation at RT (protect from light). IC50 values were calculated from the percent inhibition observed for each test compound at 10 concentrations.
(§11) The assay plate was read using Envision (Perkin Elmer, Waltham, Mass.) at 665 nm and 590 nm (using Filter Barcode of 217#, 205#; Mirror Barcode of 446#).
(§12) Data are analyzed using Assay Data Analyzer. All ratio data (665 nm/590 nm) are back calculated according to the standard curve, resulting in Cortisol/Aldosterone concentrations. IC50 values are reported as the Inflection Point (IP) of a four parameter fit of the titration data.
as §5
(§13) % Activity=100×{1−(Sample_back calculated Cortisol/Aldosterone concentration−LC_back calculated Cortisol/Aldosterone concentration)/(HC_back calculated Cortisol/Aldosterone concentration−LC_back calculated Cortisol/Aldosterone concentration)}

human CYP11B2 = target: T6, human CYP11B2 (Homo sapiens, UniProt P19099); experiment: IC50 vs CYP11B2 by aldosterone synthesis in V79 cells; format: cell-based; conditions: V79 cells expressing human CYP11B2, 750 nM DOC, aldosterone HTRF; test concentrations 0.5-10000 nM
T6 construct: expressed in transfected cells
T6 sequence (P19099 25-503): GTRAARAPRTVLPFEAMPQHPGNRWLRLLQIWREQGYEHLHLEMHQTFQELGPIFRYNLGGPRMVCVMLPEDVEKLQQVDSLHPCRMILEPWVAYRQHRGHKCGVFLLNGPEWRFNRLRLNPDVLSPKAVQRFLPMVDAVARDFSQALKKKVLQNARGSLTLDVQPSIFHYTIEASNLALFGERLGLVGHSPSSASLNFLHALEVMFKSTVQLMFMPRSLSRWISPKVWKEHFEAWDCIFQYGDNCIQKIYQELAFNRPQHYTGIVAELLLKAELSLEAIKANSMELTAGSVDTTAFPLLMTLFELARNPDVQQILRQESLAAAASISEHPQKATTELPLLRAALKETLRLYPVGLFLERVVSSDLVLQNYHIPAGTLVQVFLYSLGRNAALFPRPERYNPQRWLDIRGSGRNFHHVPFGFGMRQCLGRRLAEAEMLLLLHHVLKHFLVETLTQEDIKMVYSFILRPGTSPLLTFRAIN
Experimental: as §8, §9, §10, §11, §12, §5, §13

IC50 (CYP1A2) [µM] | IC50 (CYP2C9) [µM] | IC50 (CYP2C19) [µM] | IC50 (CYP2D6) [nM] | IC50 at 8 min (CYP3A4) [nM] | IC50 (human CYP11B1) [nM] | IC50 (human CYP11B2) [nM] | SMILES
> 10 | > 10 | > 10 | 2900 |  |  |  | C[C@H](c1ccc(F)cc1)n1cncc1C1CC12CCN(S(=O)(=O)c1cnc(N3CCN(C)CC3)s1)CC2 (single isomer, unassigned) [Compound 43a]
> 10 | > 10 | 9.2 | 3600 |  |  |  | C[C@H](c1ccc(F)cc1)n1cncc1C1CC12CCN(S(=O)(=O)c1cnc(N3CCN(C)CC3)s1)CC2 (single isomer, unassigned) [Compound 43b]
> 10 | 0.336 | 1.13 | 5680 | < 0.98 |  |  | COC(c1cncn1[C@H](C)c1ccc(F)cc1)C1CCN(S(=O)(=O)c2cnc(Nc3ccc(C(F)(F)F)cn3)s2)CC1 (single isomer, unassigned) [Compound 45a]
> 10 | 1.45 | 4.49 | 7850 |  |  |  | COC(c1cncn1[C@H](C)c1ccc(F)cc1)C1CCN(S(=O)(=O)c2cnc(Nc3ccc(C(F)(F)F)cn3)s2)CC1 (single isomer, unassigned) [Compound 45b]
> 10 | 3.39 | > 10 | > 10000 |  | 4090 |  | C[C@H](c1ccc(F)cc1)n1cncc1CN1CCN(S(=O)(=O)c2cnc(N3CCC(S(C)(=O)=O)C3)s2)CC1 (stereo partly drawn) [Compound 7]
> 10 | 1.75 | > 10 | 2850 |  | 1460 | 1690 | C[C@H](c1ccc(F)cc1)n1cncc1CN1CCN(S(=O)(=O)c2cnc(N3CC[C@@H](N)[C@H](F)C3)s2)CC1 [Compound 12]
> 10 | 7.41 | > 10 |  | 1.4 | 1560 |  | C[C@H](c1ccc(F)cc1)n1cncc1CN1CCN(S(=O)(=O)c2cnc(N3CC[C@@H]4OCCN[C@H]4C3)s2)CC1 [Compound 13]
> 10 | 9.76 | > 10 |  |  | 1050 |  | C[C@H](c1ccc(F)cc1)n1cncc1CN1CCN(S(=O)(=O)c2cnc(N3CC[C@@H]4OCCN[C@H]4C3)s2)CC1 [Compound 14]
> 10 | 2.26 | 4.95 | 2300 | 2.1 |  |  | C[C@H](c1ccc(F)cc1)n1cncc1C1CN(C)CC2CN(S(=O)(=O)c3cnc(Nc4ccccn4)s3)CCN21 (stereo partly drawn) [Compound 41]
> 10 | 3.57 | 8.39 | 2410 | 1.1 |  |  | C[C@H](c1ccc(F)cc1)n1cncc1CC1CCN(S(=O)(=O)c2cnc(N3CCN(C)CC3)s2)CC1 [Compound 44]
> 10 | > 10 | > 10 | 5840 | 13 |  |  | C[C@H](c1ccc(F)cc1)n1cncc1CC1(CO)CCN(S(=O)(=O)c2cnc(N3CCN(C)CC3)s2)CC1 [Compound 47]
> 10 | > 10 | 8.06 | 2850 | 9.4 |  |  | C[C@H](c1ccc(F)cc1)n1cncc1CC1(C#N)CCN(S(=O)(=O)c2cnc(N3CCN(C)CC3)s2)CC1 [Compound 48]
